From PMC8550792, “Evolution of kinase polypharmacology across HSP90 drug discovery” (Cell Chemical Biology, 2021)
Where two headings read alike, the source gives them in different places.

Key:
Assay in all cases: biochemical
Type in all cases: biochemical
382 unique human kinases [1] = molecular target: T1, 382 unique human kinases (Homo sapiens, UniProt O96017); details: kinase CHK2, compound 10 uM; for remaining activity at 10 µM: read-out: % Enzyme Activity (relative to DMSO controls)
T1 construct: purchased Reaction Biology (HotSpot contract assay)

382 unique human kinases [2] = molecular target: T2, 382 unique human kinases (Homo sapiens, UniProt P31751); details: kinase AKT2, compound 10 uM; for remaining activity at 10 µM: read-out: % Enzyme Activity (relative to DMSO controls)
T2 construct: purchased Reaction Biology (HotSpot contract assay)

382 unique human kinases [3] = molecular target: T3, 382 unique human kinases (Homo sapiens, UniProt O00506); details: STK25/YSK1, compound at 10 uM, duplicate values; for remaining activity at 10 µM: read-out: % Enzyme Activity (relative to DMSO controls)
T3 construct: purchased Reaction Biology (HotSpot contract assay)

382 unique human kinases [4] = molecular target: T4, 382 unique human kinases (Homo sapiens, UniProt P06493); details: for remaining activity at 10 µM: read-out: % Enzyme Activity (relative to DMSO controls)
T4 construct: purchased Reaction Biology (HotSpot contract assay)

382 unique human kinases [5] = molecular target: T5, 382 unique human kinases (Homo sapiens, UniProt Q9Y2K2); details: SIK3, 10 uM; for remaining activity at 10 µM: read-out: % Enzyme Activity (relative to DMSO controls)
T5 construct: purchased Reaction Biology (HotSpot contract assay)

382 unique human kinases [6] = molecular target: T6, 382 unique human kinases (Homo sapiens, UniProt Q99759); details: MEKK3, compound at 10 uM, duplicate values; for remaining activity at 10 µM: read-out: % Enzyme Activity (relative to DMSO controls)
T6 construct: purchased Reaction Biology (HotSpot contract assay)
T6 sequence (Q99759 1-626): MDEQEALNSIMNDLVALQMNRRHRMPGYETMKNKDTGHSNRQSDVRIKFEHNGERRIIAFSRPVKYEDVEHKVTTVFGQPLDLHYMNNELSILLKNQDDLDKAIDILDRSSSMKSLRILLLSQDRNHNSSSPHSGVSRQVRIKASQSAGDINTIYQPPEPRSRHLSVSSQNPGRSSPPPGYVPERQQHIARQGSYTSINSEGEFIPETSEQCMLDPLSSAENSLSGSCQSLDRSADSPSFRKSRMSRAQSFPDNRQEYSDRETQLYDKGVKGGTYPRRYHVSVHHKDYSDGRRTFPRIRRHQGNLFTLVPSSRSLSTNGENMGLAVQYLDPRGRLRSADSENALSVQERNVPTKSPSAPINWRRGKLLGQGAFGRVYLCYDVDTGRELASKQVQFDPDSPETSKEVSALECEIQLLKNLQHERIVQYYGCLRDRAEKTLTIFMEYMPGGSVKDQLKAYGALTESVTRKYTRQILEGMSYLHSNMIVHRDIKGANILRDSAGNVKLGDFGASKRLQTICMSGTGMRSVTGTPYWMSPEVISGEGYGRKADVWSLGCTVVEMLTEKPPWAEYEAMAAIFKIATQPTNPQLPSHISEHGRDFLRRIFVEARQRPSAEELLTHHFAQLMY

382 unique human kinases [7] = molecular target: T7, 382 unique human kinases (Homo sapiens, UniProt P10398); details: compound at 10 uM, duplicate values
T7 construct: purchased Reaction Biology (HotSpot contract assay)
T7 sequence (P10398 1-606): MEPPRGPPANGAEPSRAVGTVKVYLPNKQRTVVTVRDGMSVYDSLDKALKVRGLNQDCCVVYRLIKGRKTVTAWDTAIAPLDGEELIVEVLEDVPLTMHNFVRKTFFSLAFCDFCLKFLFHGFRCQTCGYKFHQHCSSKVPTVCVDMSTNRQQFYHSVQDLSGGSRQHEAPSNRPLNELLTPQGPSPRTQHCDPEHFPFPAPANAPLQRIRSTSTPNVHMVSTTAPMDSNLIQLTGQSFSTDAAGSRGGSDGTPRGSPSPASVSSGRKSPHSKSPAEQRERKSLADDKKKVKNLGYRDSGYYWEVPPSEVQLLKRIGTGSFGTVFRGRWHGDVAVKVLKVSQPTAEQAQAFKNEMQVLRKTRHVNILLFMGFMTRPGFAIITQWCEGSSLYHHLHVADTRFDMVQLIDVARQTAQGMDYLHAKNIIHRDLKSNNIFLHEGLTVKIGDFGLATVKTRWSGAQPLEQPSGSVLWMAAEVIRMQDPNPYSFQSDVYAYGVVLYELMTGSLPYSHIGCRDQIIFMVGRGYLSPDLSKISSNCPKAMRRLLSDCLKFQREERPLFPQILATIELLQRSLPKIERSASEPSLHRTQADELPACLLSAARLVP

382 unique human kinases [8] = molecular target: T8, 382 unique human kinases (Homo sapiens, UniProt O75582); details: kinase MSK1/RPS6KA5, compound 10 uM; for remaining activity at 10 µM: read-out: % Enzyme Activity (relative to DMSO controls)
T8 construct: purchased Reaction Biology (HotSpot contract assay)

382 unique human kinases [9] = molecular target: T9, 382 unique human kinases (Homo sapiens, UniProt P00519, F317I); details: ABL1 (F317I), [ATP] 5 µM, compound 10 uM; for remaining activity at 10 µM: read-out: % Enzyme Activity (relative to DMSO controls)
T9 construct: purchased Reaction Biology (HotSpot contract assay)

382 unique human kinases [10] = molecular target: T10, 382 unique human kinases (Homo sapiens, UniProt P00519, H396P); details: ABL1 (H396P), [ATP] 15 µM, compound 10 uM; for remaining activity at 10 µM: read-out: % Enzyme Activity (relative to DMSO controls)
T10 construct: purchased Reaction Biology (HotSpot contract assay)

382 unique human kinases [11] = molecular target: T11, 382 unique human kinases (Homo sapiens, UniProt P53350); details: PLK1, [ATP] 30 µM
T11 construct: purchased Reaction Biology (HotSpot contract assay)

382 unique human kinases [12] = molecular target: T12, 382 unique human kinases (Homo sapiens, UniProt P07948); details: LYN, [ATP] 15 µM, compound 10 uM; for remaining activity at 10 µM: read-out: % Enzyme Activity (relative to DMSO controls)
T12 construct: purchased Reaction Biology (HotSpot contract assay)

382 unique human kinases [13] = molecular target: T13, 382 unique human kinases (Homo sapiens, UniProt Q6PHR2); details: ULK3, 10 uM; for remaining activity at 10 µM: read-out: % Enzyme Activity (relative to DMSO controls)
T13 construct: purchased Reaction Biology (HotSpot contract assay)
T13 sequence (Q6PHR2 1-472): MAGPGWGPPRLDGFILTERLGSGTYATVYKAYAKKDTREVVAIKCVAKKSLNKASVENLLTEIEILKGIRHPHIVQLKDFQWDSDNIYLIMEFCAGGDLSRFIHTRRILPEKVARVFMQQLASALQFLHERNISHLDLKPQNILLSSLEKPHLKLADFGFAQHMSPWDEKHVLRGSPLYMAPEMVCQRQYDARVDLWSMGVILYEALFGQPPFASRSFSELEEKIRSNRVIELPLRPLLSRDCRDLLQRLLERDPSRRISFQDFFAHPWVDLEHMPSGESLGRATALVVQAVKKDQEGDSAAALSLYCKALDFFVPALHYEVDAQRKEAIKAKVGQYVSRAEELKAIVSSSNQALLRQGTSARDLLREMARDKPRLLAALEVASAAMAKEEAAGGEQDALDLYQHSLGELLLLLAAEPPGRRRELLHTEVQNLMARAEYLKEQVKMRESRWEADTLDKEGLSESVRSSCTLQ

382 unique human kinases [14] = molecular target: T14, 382 unique human kinases (Homo sapiens, UniProt Q9HCP0); details: CK1g1, 10 uM; for remaining activity at 10 µM: read-out: % Enzyme Activity (relative to DMSO controls)
T14 construct: purchased Reaction Biology (HotSpot contract assay)

[15] = kinase CDK1/cyclin A, compound 10 uM
[16] = kinase CDK1/cyclin E, compound 10 uM
[17] = compound 10 uM, read-out: % Enzyme Activity (relative to DMSO controls)

T8 sequence (O75582 whole entry): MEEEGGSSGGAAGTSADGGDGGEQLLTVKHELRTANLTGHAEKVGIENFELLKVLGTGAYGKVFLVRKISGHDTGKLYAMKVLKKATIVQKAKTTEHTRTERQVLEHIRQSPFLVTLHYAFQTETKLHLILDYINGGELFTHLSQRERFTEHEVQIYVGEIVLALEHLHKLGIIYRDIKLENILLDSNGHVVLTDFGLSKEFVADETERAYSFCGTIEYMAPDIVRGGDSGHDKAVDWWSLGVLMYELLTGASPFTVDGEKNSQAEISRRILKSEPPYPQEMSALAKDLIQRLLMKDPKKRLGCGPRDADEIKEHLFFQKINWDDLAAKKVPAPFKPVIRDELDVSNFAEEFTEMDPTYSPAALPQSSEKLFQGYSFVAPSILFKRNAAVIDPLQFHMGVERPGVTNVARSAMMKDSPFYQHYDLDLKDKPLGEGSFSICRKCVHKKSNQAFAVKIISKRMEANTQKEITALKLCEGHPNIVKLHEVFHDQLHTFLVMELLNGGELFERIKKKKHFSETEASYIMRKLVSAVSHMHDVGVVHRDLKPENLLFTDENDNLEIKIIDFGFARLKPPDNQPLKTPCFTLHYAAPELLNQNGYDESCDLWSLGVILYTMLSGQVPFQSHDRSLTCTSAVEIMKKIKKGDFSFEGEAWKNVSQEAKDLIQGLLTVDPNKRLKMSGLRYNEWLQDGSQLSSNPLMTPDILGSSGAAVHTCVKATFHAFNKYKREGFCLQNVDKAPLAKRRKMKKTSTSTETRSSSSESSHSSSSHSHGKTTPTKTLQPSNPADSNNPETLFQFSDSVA
T12 sequence (P07948 whole entry): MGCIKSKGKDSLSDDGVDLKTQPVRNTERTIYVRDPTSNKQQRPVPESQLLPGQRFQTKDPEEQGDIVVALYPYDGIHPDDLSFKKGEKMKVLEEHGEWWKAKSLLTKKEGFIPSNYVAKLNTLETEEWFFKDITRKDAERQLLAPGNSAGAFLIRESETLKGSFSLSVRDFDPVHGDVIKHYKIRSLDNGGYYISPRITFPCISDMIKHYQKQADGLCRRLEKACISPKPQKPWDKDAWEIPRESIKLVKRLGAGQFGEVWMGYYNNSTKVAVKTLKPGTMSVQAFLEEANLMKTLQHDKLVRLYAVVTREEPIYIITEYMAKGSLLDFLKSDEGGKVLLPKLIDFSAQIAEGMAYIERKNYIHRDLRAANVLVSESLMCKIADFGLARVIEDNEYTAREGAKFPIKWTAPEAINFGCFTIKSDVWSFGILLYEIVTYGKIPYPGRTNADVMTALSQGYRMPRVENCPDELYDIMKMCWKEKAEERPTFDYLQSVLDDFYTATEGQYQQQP
T3 sequence (O00506 whole entry): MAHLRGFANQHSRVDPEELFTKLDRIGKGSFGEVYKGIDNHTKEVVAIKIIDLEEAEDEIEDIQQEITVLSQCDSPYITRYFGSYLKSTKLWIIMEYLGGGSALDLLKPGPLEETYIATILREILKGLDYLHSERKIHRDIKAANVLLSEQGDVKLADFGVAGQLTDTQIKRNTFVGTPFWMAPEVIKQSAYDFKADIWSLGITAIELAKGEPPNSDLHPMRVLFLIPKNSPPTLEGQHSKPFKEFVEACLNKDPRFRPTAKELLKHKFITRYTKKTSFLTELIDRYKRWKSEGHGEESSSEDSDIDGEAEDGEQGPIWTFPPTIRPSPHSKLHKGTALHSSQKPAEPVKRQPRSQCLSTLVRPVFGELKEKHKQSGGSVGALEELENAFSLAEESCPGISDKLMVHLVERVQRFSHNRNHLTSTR
T11 sequence (P53350 whole entry): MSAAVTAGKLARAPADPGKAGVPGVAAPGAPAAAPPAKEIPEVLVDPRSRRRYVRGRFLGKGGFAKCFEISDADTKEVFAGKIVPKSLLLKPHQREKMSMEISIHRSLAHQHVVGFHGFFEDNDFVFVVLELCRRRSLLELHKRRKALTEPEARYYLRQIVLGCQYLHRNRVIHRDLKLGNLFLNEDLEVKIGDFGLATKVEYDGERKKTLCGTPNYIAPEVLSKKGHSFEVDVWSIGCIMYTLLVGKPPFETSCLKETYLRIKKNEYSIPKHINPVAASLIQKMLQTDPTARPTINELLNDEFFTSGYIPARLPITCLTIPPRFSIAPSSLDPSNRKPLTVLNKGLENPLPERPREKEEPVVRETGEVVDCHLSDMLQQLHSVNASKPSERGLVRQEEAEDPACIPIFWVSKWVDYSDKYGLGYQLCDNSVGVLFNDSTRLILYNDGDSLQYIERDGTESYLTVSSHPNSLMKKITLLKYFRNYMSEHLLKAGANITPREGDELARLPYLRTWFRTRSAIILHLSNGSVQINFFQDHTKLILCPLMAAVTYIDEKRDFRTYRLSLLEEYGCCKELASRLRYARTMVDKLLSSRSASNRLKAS
T1 sequence (O96017 whole entry): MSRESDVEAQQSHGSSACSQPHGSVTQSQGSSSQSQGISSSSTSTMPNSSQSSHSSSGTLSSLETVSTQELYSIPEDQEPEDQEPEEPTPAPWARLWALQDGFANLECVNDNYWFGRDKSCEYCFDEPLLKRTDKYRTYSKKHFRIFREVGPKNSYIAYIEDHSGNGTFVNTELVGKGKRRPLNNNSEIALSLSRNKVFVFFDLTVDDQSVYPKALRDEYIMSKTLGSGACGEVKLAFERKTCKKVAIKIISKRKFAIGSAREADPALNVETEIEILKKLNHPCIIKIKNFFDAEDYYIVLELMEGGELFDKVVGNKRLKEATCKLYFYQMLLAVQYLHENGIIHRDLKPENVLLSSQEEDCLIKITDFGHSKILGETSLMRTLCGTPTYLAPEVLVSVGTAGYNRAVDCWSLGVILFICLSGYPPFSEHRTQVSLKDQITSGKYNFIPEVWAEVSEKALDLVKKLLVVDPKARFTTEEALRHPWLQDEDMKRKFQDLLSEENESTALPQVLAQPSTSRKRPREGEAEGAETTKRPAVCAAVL
T4 sequence (P06493 whole entry): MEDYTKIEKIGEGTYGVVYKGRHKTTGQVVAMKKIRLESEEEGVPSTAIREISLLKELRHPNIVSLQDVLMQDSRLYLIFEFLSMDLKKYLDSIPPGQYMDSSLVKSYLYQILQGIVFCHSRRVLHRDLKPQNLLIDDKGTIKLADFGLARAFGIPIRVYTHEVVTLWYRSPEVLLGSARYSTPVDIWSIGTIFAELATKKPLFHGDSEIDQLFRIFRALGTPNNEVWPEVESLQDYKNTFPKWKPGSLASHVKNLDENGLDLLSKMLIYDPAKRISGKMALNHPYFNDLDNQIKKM
T5 sequence (Q9Y2K2 whole entry): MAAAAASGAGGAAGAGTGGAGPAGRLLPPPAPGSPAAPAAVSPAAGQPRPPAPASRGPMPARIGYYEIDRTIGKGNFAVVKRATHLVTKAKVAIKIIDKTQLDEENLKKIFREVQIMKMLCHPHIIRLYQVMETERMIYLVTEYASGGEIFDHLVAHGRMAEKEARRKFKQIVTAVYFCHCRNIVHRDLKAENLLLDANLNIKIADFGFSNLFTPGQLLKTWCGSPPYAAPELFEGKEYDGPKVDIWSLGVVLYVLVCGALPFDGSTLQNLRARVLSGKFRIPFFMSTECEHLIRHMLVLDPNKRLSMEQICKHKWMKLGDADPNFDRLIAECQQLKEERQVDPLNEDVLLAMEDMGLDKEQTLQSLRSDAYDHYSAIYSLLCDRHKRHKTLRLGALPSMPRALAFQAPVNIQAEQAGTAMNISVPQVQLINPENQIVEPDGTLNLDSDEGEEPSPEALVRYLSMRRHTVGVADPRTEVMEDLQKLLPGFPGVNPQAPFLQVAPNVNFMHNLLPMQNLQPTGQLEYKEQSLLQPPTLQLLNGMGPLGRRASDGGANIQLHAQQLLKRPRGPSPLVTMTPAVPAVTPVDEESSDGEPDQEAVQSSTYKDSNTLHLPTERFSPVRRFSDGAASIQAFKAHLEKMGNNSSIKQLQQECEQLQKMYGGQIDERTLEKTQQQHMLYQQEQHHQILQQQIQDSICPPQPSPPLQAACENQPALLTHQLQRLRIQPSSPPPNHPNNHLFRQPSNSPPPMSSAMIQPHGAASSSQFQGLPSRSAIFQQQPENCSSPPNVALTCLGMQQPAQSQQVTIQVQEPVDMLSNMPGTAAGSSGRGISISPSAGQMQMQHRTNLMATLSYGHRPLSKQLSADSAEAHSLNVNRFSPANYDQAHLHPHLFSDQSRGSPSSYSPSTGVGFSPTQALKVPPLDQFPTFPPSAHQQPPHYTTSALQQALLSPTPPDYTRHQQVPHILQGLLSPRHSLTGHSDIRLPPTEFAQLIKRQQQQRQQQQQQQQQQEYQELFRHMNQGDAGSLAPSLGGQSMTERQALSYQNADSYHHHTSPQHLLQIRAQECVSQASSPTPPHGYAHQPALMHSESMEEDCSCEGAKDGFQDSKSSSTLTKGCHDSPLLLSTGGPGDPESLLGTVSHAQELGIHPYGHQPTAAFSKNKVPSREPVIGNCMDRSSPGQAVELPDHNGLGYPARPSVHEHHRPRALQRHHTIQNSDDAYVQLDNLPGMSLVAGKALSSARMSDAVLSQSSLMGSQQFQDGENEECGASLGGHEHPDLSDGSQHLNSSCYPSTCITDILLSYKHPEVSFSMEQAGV
T14 sequence (Q9HCP0 whole entry): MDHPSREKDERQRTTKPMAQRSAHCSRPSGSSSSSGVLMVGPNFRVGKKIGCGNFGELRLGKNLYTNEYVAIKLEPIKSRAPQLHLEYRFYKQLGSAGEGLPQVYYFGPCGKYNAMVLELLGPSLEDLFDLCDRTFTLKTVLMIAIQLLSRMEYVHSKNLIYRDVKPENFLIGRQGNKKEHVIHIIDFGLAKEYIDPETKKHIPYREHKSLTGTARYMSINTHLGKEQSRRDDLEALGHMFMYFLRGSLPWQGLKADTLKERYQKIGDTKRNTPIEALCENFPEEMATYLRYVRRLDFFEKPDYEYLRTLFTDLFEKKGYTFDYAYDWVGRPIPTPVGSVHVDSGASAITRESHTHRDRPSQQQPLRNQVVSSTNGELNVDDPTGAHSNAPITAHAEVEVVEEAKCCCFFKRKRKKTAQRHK

Compound	remaining activity at 10 µM (382 unique human kinases [1]) [%]	remaining activity at 10 µM (382 unique human kinases [2]) [%]	remaining activity at 10 µM (382 unique human kinases [3]) [%]	remaining activity at 10 µM (382 unique human kinases [4]; CDK1/cyclin B, 10 uM) [%]	remaining activity at 10 µM (382 unique human kinases [4]; [15]) [%]	remaining activity at 10 µM (382 unique human kinases [4]; [16]) [%]	remaining activity at 10 µM (382 unique human kinases [5]) [%]	remaining activity at 10 µM (382 unique human kinases [6]) [%]	remaining activity at 10 µM (382 unique human kinases [8]) [%]	remaining activity at 10 µM (382 unique human kinases [9]) [%]	remaining activity at 10 µM (382 unique human kinases [10]) [%]	remaining activity at 10 µM (382 unique human kinases [11]; [17]) [%]	remaining activity at 10 µM (382 unique human kinases [12]) [%]	remaining activity at 10 µM (382 unique human kinases [13]) [%]	remaining activity at 10 µM (382 unique human kinases [14]) [%]	further results
CC(C)c1cc(-c2n[nH]c(=O)n2-c2ccc3c(ccn3C)c2)c(O)cc1O [Ganetespib (STA9090)]	84.6	83.9	107	78.5	83.4	81.7	78.3	106	81							remaining activity at 10 µM (382 unique human kinases [7]; read-out: % Enzyme Activity (relative to DMSO controls), ARAF): 158%
CC(C)c1cc(-c2n[nH]c(=O)n2-c2ccc3c(ccn3C)c2)c(O)cc1O [Ganetespib]										2.88	2.43	11.5	21.7	100	95.4	remaining activity at 1 µM (382 unique human kinases [11]; compound 1 uM, read-out: % Enzyme Activity (relative to DMSO controls)): 88.2%
CCNC(=O)c1noc(-c2cc(C(C)C)c(O)cc2O)c1-c1ccc(CN2CCOCC2)cc1 [Luminespib (AUY-922)]	104	97.3	110	86.8	97.5	113	99.6	122	111							% Enzyme Activity (relative to DMSO controls) (382 unique human kinases [1]): 102.76%; % Enzyme Activity (relative to DMSO controls) (382 unique human kinases [2]): 96.69%; % Enzyme Activity (relative to DMSO controls) (382 unique human kinases [3]): 107.24%; % Enzyme Activity (relative to DMSO controls) (382 unique human kinases [4]; CDK1/cyclin B, 10 uM): 86.64%; % Enzyme Activity (relative to DMSO controls) (382 unique human kinases [4]; [15]): 96.86%; % Enzyme Activity (relative to DMSO controls) (382 unique human kinases [4]; [16]): 108.79%; % Enzyme Activity (relative to DMSO controls) (382 unique human kinases [5]): 99.21%; % Enzyme Activity (relative to DMSO controls) (382 unique human kinases [6]): 120.79%; % Enzyme Activity (relative to DMSO controls) (382 unique human kinases [7]; ARAF): 107.23%; remaining activity at 10 µM (382 unique human kinases [7]; ARAF, read-out: % Enzyme Activity (relative to DMSO controls)): 107%; % Enzyme Activity (relative to DMSO controls) (382 unique human kinases [8]): 109.40%
CCNC(=O)c1noc(-c2cc(C(C)C)c(O)cc2O)c1-c1ccc(CN2CCOCC2)cc1 [Luminespib]										25.7	6.74	103	39.2	94.8	97.5	% Enzyme Activity (relative to DMSO controls) (382 unique human kinases [9]): 24.59%; % Enzyme Activity (relative to DMSO controls) (382 unique human kinases [10]): 6.11%; % Enzyme Activity (relative to DMSO controls) (382 unique human kinases [11]; compound 10 uM): 100.90%; % Enzyme Activity (relative to DMSO controls) (382 unique human kinases [12]): 38.08%; % Enzyme Activity (relative to DMSO controls) (382 unique human kinases [13]): 91.59%; % Enzyme Activity (relative to DMSO controls) (382 unique human kinases [14]): 93.44%
